Experimental data taken from ChEMBL document CHEMBL3600324, “Design, synthesis and evaluation of MCH receptor 1 antagonists--Part II: Optimization of pyridazines toward reduced phospholipidosis and hERG inhibition” (Bioorg Med Chem Lett, 2015).

How the values were obtained:
[1] = molecular target: 5-hydroxytryptamine receptor 2A (Homo sapiens, UniProt P28223); test: Binding affinity to 5HT2A receptor (unknown origin)
[2] = molecular target: T1, Muscarinic acetylcholine receptor M1 (Homo sapiens, UniProt P11229); test: Binding affinity to muscarinic M1 receptor (unknown origin)
T1 sequence (P11229 whole entry): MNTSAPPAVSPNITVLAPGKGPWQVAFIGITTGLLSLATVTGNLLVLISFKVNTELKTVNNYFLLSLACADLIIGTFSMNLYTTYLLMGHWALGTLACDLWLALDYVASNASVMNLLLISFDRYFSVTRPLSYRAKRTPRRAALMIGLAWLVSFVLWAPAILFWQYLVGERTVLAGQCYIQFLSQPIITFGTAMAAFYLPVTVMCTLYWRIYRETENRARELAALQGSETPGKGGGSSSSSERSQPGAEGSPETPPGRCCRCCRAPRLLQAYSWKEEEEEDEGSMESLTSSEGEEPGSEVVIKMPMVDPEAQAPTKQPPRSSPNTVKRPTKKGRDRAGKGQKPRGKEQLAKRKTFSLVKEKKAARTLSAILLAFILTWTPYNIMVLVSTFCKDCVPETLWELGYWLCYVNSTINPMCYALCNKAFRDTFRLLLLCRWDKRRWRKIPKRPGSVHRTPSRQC

[3] = system: U-937; test: Toxicity in human U937 cells assessed as phospholipidosis first effect concentration by Nile red based fluorescence assay; type: cell-based
[4] = molecular target: T2, hERG (KCNH2) (Homo sapiens, UniProt Q12809); test: Inhibition of human ERG at 1 uM by patch clamp assay
[5] = molecular target: Melanin-concentrating hormone receptor 1 (Homo sapiens, UniProt Q99705); test: Displacement of [125I-MCH] from human MCH receptor 1 expressed in CHO cell membranes by scintillation counting method
[6] = Dissociation constant, pKa of the compound; type: physicochemical
[7] = system: CHO; test: Selectivity index, ratio of IC50 for muscarinic M1 receptor (unknown origin) to IC50 for human MCH receptor 1 expressed in CHO cell membranes; type: cell-based
[8] = system: CHO; test: Selectivity index, ratio of IC50 for 5HT2A receptor (unknown origin) to IC50 for human MCH receptor 1 expressed in CHO cell membranes; type: cell-based
[9] = system: Rattus norvegicus; test: Dose normalized Cmax in Wistar rat at 6.7 umol/kg, po; type: ADME, organism-based; conditions: in vivo
[10] = Tmax in Wistar rat at 6.7 umol/kg, po; type: ADME, organism-based; conditions: in vivo
[11] = Mean residence time in Wistar rat at 6.7 umol/kg, po; type: ADME, organism-based; conditions: in vivo
[12] = molecular target: T2, hERG (KCNH2); test: Inhibition of human ERG at 10 uM by patch clamp assay
[13] = system: Rattus norvegicus; test: AUC in Wistar rat at 6.7 umol/kg, po; type: ADME, organism-based; conditions: in vivo
[14] = Mean residence time in Wistar rat at 11.9 umol/kg, po; type: ADME, organism-based; conditions: in vivo
[15] = system: Rattus norvegicus; test: Dose normalized Cmax in Wistar rat at 11.9 umol/kg, po; type: ADME, organism-based; conditions: in vivo
[16] = Tmax in Wistar rat at 11.9 umol/kg, po; type: ADME, organism-based; conditions: in vivo
[17] = system: Rattus norvegicus; test: AUC in Wistar rat at 11.9 umol/kg, po; type: ADME, organism-based; conditions: in vivo
[18] = Mean residence time in Wistar rat at 10.9 umol/kg, po; type: ADME, organism-based; conditions: in vivo
[19] = system: Rattus norvegicus; test: Dose normalized Cmax in Wistar rat at 10.9 umol/kg, po; type: ADME, organism-based; conditions: in vivo
[20] = Tmax in Wistar rat at 10.9 umol/kg, po; type: ADME, organism-based; conditions: in vivo
[21] = system: Rattus norvegicus; test: AUC in Wistar rat at 10.9 umol/kg, po; type: ADME, organism-based; conditions: in vivo
[22] = molecular target: Voltage-gated inwardly rectifying potassium channel KCNH2 (Homo sapiens, UniProt Q12809); test: Inhibition of human ERG by patch clamp assay
Sequence of Voltage-gated inwardly rectifying potassium channel KCNH2 (Q12809 whole entry): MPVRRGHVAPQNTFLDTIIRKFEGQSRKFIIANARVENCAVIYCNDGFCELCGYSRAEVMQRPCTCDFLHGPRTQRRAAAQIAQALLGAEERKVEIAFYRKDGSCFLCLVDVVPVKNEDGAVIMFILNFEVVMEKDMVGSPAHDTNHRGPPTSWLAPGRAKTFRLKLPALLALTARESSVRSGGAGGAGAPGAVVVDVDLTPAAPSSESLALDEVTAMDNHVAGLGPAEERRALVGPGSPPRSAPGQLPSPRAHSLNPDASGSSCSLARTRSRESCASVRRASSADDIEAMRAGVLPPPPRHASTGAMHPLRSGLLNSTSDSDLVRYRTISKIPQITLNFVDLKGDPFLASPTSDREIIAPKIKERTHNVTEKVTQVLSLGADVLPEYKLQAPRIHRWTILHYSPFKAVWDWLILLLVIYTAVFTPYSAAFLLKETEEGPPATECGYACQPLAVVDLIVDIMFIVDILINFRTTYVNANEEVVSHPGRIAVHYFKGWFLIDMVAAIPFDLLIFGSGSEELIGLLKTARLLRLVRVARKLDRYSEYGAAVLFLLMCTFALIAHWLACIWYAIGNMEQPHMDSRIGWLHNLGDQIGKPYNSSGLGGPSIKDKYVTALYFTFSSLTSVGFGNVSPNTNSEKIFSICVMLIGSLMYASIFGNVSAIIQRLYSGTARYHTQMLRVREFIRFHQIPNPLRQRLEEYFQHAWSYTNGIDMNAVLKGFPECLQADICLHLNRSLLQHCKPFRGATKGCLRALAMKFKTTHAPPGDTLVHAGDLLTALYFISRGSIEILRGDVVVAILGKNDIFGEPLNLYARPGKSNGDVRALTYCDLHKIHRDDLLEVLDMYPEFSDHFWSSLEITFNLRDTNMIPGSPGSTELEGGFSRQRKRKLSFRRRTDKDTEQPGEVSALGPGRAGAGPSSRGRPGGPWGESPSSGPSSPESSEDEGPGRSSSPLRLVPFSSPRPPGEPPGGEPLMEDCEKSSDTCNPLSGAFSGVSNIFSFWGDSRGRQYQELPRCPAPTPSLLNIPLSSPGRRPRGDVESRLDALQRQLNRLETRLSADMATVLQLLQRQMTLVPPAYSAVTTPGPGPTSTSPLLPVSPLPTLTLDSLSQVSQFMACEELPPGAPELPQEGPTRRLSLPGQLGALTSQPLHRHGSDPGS

T2 sequence (Q12809 whole entry): as above
Sequence of 5-hydroxytryptamine receptor 2A (P28223 whole entry): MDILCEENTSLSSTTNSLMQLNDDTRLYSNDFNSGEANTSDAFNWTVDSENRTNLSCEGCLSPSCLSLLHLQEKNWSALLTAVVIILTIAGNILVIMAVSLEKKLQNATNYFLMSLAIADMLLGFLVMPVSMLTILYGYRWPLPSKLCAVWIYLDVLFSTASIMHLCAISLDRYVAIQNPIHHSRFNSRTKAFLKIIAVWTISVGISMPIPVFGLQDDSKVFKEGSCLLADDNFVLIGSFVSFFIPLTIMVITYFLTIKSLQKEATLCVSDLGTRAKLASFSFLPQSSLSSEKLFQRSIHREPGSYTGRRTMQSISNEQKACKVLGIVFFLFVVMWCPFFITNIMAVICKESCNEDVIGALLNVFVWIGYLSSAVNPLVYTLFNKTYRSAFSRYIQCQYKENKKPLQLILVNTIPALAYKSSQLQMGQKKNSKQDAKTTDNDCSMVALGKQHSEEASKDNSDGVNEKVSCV
Sequence of Melanin-concentrating hormone receptor 1 (Q99705 whole entry): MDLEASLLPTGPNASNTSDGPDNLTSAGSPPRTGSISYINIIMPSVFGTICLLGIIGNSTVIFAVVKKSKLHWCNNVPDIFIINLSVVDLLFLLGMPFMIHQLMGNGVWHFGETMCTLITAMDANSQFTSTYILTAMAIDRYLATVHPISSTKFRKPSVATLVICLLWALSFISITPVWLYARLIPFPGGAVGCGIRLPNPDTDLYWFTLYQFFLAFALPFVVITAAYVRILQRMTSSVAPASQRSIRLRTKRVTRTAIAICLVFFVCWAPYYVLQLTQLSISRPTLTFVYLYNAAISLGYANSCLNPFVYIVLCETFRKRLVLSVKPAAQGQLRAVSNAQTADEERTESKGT

Row | Structure (SMILES) | IC50 [1] [nM] | IC50 [2] [nM] | IC50 [5] [nM] | Activity [3] [µM] | inhibition at 1 µM [4] [%] | further results
1 | O=C(CCc1ccc(-c2ccc(Cl)cc2)cc1)Nc1ccc(CN2CCCCC2)cc1 | 138 | 89 | 38 | – | – | Ratio IC50 [7]: 2; Ratio IC50 [8]: 4
2 | Fc1ccc(-c2ccc(CCCNc3ccc(CN4CCCCC4)cc3)nn2)cc1 | 34 | 3740 | – | – | – | –
3 | CC(=O)NC1CCN(Cc2ccc(OCCCc3ccc(Oc4ccccc4)nn3)cc2)CC1 | 9650 | > 10000 | 10 | 100 | – | Cmax/dose [9]: 531 nM; Tmax [10]: 0.8 h; MRT [11]: 2.9 h; inhibition at 10 µM [12]: 13%; AUC/dose [13]: 175 nM·h
4 | COc1ccc(-c2ccc(CCCNc3ccc(CN4CCOCC4)cc3)nn2)cc1 | > 10000 | > 10000 | 20 | 12.5 | 5 | pKa [6]: 7.6
5 | OCC1CCN(Cc2ccc(OCCCc3ccc(Oc4ccccc4)nn3)cc2)CC1 | > 10000 | 2110 | – | 100 | 8 | –
6 | N#Cc1ccc(-c2ccc(CCCNc3ccc(CN4CCCCC4)cc3)nn2)cc1 | 1460 | 1920 | – | – | – | –
7 | COc1ccc(-c2ccc(CCCNc3ccc(CN4CCC(NC(C)=O)CC4)cc3)nn2)cc1 | > 10000 | > 10000 | 10 | 100 | 7 | MRT [14]: 4 h; Cmax/dose [15]: 83 nM; Tmax [16]: 1.5 h; AUC/dose [17]: 476 nM·h; pKa [6]: 8.8
8 | CC(=O)NC1CCN(Cc2ccc(NCCCc3ccc(Oc4ccccc4)nn3)cc2)CC1 | > 10000 | > 10000 | – | > 100 | – | MRT [18]: 6.4 h; Cmax/dose [19]: 24 nM; Tmax [20]: 2.8 h; AUC/dose [21]: 123 nM·h; IC50 [22]: > 10000 nM
9 | OC1CCN(Cc2ccc(NCCCc3ccc(Oc4ccccc4)nn3)cc2)CC1 | > 10000 | > 10000 | 24 | 50 | – | inhibition at 10 µM [12]: 35%; pKa [6]: 9.1
10 | O[C@@H]1CCCN(Cc2ccc(OCCCc3ccc(Oc4ccccc4)nn3)cc2)C1 | > 10000 | > 10000 | – | – | – | –
11 | CC(=O)NC1CCN(Cc2ccc(OCCCc3ccc(-c4ccc(F)cc4)nn3)cc2)CC1 | 713 | 4470 | 15 | 100 | – | –
12 | COc1ccc(-c2ccc(CCCNc3ccc(CN4CCCC4)cc3)nn2)cc1 | 4540 | 1860 | 95 | – | – | –
13 | Clc1ccc(-c2ccc(CCCNc3ccc(CN4CCCCC4)cc3)cc2)cc1 | 680 | 325 | 3 | – | 76 | Ratio IC50 [7]: 110; Ratio IC50 [8]: 230
14 | OC1CCN(Cc2ccc(OCCCc3ccc(-c4ccc(F)cc4)nn3)cc2)CC1 | 242 | > 10000 | 186 | – | – | –
15 | Clc1ccc(-c2ccc(CCCNc3ccc(CN4CCCCC4)cc3)nn2)cc1 | 138 | 310 | 4 | 6.25 | 8 | –
16 | O[C@@H]1CCCN(Cc2ccc(OCCCc3ccc(-c4ccc(Cl)cc4)nn3)cc2)C1 | 595 | 5470 | 15 | 6.25 | 13 | –

More lines, main results first:

Row | IC50 [1] [nM] | IC50 [2] [nM] | IC50 [5] [nM] | Structure (SMILES) | Activity [3] [µM] | inhibition at 1 µM [4] [%] | further results
17 | 29 | 511 | – | O=C(NCc1ccc(-c2ccc(Cl)cc2)cc1)Nc1ccc(CN2CCCCC2)cc1 | – | – | –
18 | > 10000 | > 10000 | – | CC(=O)NC1CCN(Cc2ccc(OCCCc3ccc(Cc4ccccc4)nn3)cc2)CC1 | 100 | 13 | –
19 | 1810 | 962 | 7 | COc1ccc(-c2ccc(CCCNc3ccc(CN4CCCCC4)cc3)nn2)cc1 | 6.25 | – | pKa [6]: 9
20 | – | 225 | – | O=C(C#Cc1ccc(-c2ccc(Cl)cc2)cc1)Nc1ccc(CN2CCCCC2)cc1 | – | – | –
21 | 646 | 419 | – | CN(CCCc1ccc(-c2ccc(Cl)cc2)cc1)c1ccc(CN2CCCCC2)cc1 | – | – | –
22 | 4580 | 1030 | – | COc1ccc(-c2ccc(CCCNc3ccc(CN(C)C)cc3)nn2)cc1 | – | – | –
23 | > 10000 | > 10000 | 3 | OC1CCN(Cc2ccc(NCCCc3ccc(OCc4ccccc4)nn3)cc2)CC1 | 50 | 4 | –
24 | > 10000 | > 10000 | – | COc1ccc(-c2ccc(CCCNc3ccc(CN4CCCC(O)C4)cc3)nn2)cc1 (stereo not drawn) | 25 | 10 | –
25 | 790 | 1650 | – | OCC1CCN(Cc2ccc(OCCCc3ccc(-c4ccc(Cl)cc4)nn3)cc2)CC1 | 12.5 | – | –
26 | 1410 | > 10000 | – | OC1CCN(Cc2ccc(OCCCc3ccc(-c4ccc(Cl)cc4)nn3)cc2)CC1 | 25 | 38 | –
27 | 91 | 446 | 94 | O=C(COc1ccc(-c2ccc(Cl)cc2)cc1)Nc1ccc(CN2CCCCC2)cc1 | – | – | Ratio IC50 [7]: 5; Ratio IC50 [8]: 1
28 | 1930 | 401 | 16 | O=C(/C=C/c1ccc(-c2ccc(Cl)cc2)cc1)Nc1ccc(CN2CCCCC2)cc1 | – | – | Ratio IC50 [7]: 25; Ratio IC50 [8]: 121
29 | 362 | 625 | 634 | CN(C(=O)/C=C/c1ccc(-c2ccc(Cl)cc2)cc1)c1ccc(CN2CCCCC2)cc1 | – | – | Ratio IC50 [7]: 1; Ratio IC50 [8]: 1
30 | 8820 | > 10000 | 20 | COc1ccc(-c2ccc(CCCNc3ccc(CN4CCC(O)CC4)cc3)nn2)cc1 | 50 | 10 | pKa [6]: 8.6
